From ChEMBL document CHEMBL1152096 (Bioorg Med Chem Lett, 1992)

Experiments:
Cavia porcellus [1] = species on record: Cavia porcellus; assay: Evaluated for the percent efficacy in guinea pig ileum contraction model; assay type: functional
Cavia porcellus [2] = species on record: Cavia porcellus; assay: Evaluated for the muscarinic potency in guinea pig ileum contraction model; assay type: functional
Rattus norvegicus [3] = species on record: Rattus norvegicus; assay: Evaluated for the muscarinic potency in depolarizations of rat superior cervical ganglion; assay type: functional
Rattus norvegicus [4] = species on record: Rattus norvegicus; assay: Evaluated for the muscarinic potency in rat hippocampal slice preparations; assay type: functional, Hippocampus
[5] = biological target: T1, Muscarinic acetylcholine receptor M1 (Rattus norvegicus, UniProt P08482); assay: Evaluated for inhibition of binding of [3H]pirenzepine to homogenized rat cerebral cortex membranes; assay type: cell membranes, Membrane
T1 sequence (P08482 whole entry): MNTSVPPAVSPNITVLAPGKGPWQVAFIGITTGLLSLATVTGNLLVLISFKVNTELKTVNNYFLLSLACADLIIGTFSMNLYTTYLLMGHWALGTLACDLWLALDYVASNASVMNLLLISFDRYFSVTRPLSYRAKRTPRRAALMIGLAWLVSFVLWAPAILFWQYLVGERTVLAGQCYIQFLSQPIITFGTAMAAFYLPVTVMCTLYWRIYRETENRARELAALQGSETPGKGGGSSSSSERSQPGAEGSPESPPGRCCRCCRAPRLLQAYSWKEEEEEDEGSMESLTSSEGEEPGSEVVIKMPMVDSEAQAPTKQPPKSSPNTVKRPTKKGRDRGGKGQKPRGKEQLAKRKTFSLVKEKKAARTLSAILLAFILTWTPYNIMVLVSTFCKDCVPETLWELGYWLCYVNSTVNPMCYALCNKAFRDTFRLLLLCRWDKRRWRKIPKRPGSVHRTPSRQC

Rattus norvegicus [6] = species on record: Rattus norvegicus; assay: Evaluated for the percentage efficacy in rat hippocampal slice preparations; assay type: functional, Hippocampus
Rattus norvegicus [7] = species on record: Rattus norvegicus; assay: Evaluated for the muscarinic potency in rat superior cervical ganglion; assay type: functional
Rattus norvegicus [8] = species on record: Rattus norvegicus; assay: Evaluated for the percentage efficacy in rat superior cervical ganglion; assay type: functional
Rattus norvegicus [9] = species on record: Rattus norvegicus; assay: Evaluated for the percentage efficacy in depolarizations of rat superior cervical ganglion; assay type: functional

Compound COC(=O)C1CC2CNC1C2 (racemic) has an Efficacy (Cavia porcellus [1]) of 91%, a pD2 (Cavia porcellus [2]) of 6.2 and an Efficacy (Rattus norvegicus [3]) of 57%. It also gave a pD2 (Rattus norvegicus [3]) of 6.3, a pD2 (Rattus norvegicus [4]) of 5.5 and an IC50 [5] of 1950 nM. For the same compound, the Efficacy (Rattus norvegicus [6]) was 103%.
COC(=O)[C@@H]1C[C@H]2CN[C@@H]1C2 gave an Efficacy (Cavia porcellus [1]) of 120%, a pD2 (Cavia porcellus [2]) of 6 and an Efficacy (Rattus norvegicus [3]) of 90%. For the same compound, the pD2 (Rattus norvegicus [3]) was 6.7, the pD2 (Rattus norvegicus [4]) was 6 and the IC50 [5] was 1410 nM. For the same compound, the Efficacy (Rattus norvegicus [6]) was 120%.
COC(=O)[C@H]1C[C@H]2C[C@@H]1N(C)C2 was tested, and the Efficacy (Cavia porcellus [1]) was 68%, the pD2 (Cavia porcellus [2]) was 4.9 and the pD2 (Rattus norvegicus [7]) was 5.9. It also gave an Efficacy (Rattus norvegicus [8]) of 71%, a pD2 (Rattus norvegicus [4]) of under 4 and an IC50 [5] of 1910 nM.
Work on COC(=O)[C@H]1C[C@@H]2CN[C@H]1C2 yielded an Efficacy (Cavia porcellus [1]) of 94%, a pD2 (Cavia porcellus [2]) of 5.2 and an Efficacy (Rattus norvegicus [3]) of 47%. It also gave a pD2 (Rattus norvegicus [3]) of 5.2, a pD2 (Rattus norvegicus [4]) of under 4 and an IC50 [5] of 2570 nM.
In the case of COC(=O)C1=CCCN(C)C1 [ARECOLINE], the Efficacy (Cavia porcellus [1]) is reported as 100%, the pD2 (Cavia porcellus [2]) is reported as 6.5 and the Efficacy (Rattus norvegicus [9]) is reported as 80%. It also gave a pD2 (Rattus norvegicus [3]) of 6.6, a pD2 (Rattus norvegicus [4]) of 6.1 and an Efficacy (Rattus norvegicus [6]) of 100%.
In the case of COC(=O)[C@@H]1C[C@@H]2C[C@H]1N(C)C2, the pD2 (Cavia porcellus [2]) is reported as under 4, the Efficacy (Rattus norvegicus [3]) is reported as 70% and the pD2 (Rattus norvegicus [3]) is reported as 4.4. It also gave a pD2 (Rattus norvegicus [4]) of 5.9, an IC50 [5] of 3890 nM and an Efficacy (Rattus norvegicus [6]) of 33%.
Work on COC(=O)C1CC2CC1N(C)C2 (racemic) yielded an Efficacy (Cavia porcellus [1]) of 58%, a pD2 (Cavia porcellus [2]) of 4.2 and an Efficacy (Rattus norvegicus [3]) of 82%. For the same compound, the pD2 (Rattus norvegicus [3]) was 5, the pD2 (Rattus norvegicus [4]) was 5.4 and the IC50 [5] was 2820 nM. For the same compound, the Efficacy (Rattus norvegicus [6]) was 39%.
